Reference: PubChem BioAssay AID1963971 (Molecular Pharmacology Branch, DTP, NCI, 2024)

System: 953936-095-R-J2-PDC spheroids with HUVEC/MSC, viability
Assay: Anticancer human tumor 953936-095-R-J2-PDC patient-derived cervical squamous cell carcinoma cell line growth inhibition [PI3K]
Details: for IC50: curve of first compound; for viability, T/C: stronger effect = lower value
In short: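 Stroma-containing spheroids: tumor line, pooled-donor HUVEC, hMSC. Treatments: targeted agents with PI3K inhibitors. Dosing: clinically relevant, half-log spacing, 10 microM ceiling without known Cmax. Read-out: cell viability.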

[1] = second compound 0.00316 µM, first compound 0.0316 µM
[2] = second compound 0.00316 µM, first compound 0.1 µM
[3] = second compound 0.00316 µM, first compound 0.316 µM
[4] = second compound 0.00316 µM, first compound 1 µM
[5] = second compound 0.00316 µM, first compound 3.16 µM
[6] = second compound 0.00316 µM, first compound 10 µM
[7] = second compound 0.01 µM, first compound 0.0316 µM
[8] = second compound 0.01 µM, first compound 0.1 µM
[9] = second compound 0.01 µM, first compound 0.316 µM
[10] = second compound 0.01 µM, first compound 1 µM
[11] = second compound 0.01 µM, first compound 3.16 µM
[12] = second compound 0.01 µM, first compound 10 µM
[13] = second compound 0.0316 µM, first compound 0.0316 µM
[14] = second compound 0.0316 µM, first compound 0.1 µM
[15] = second compound 0.0316 µM, first compound 0.316 µM
[16] = second compound 0.0316 µM, first compound 1 µM
[17] = second compound 0.0316 µM, first compound 3.16 µM
[18] = second compound 0.0316 µM, first compound 10 µM
[19] = second compound 0.1 µM, first compound 0.0316 µM
[20] = second compound 0.1 µM, first compound 0.1 µM
[21] = second compound 0.1 µM, first compound 0.316 µM
[22] = second compound 0.1 µM, first compound 1 µM
[23] = second compound 0.1 µM, first compound 3.16 µM
[24] = second compound 0.1 µM, first compound 10 µM
[25] = second compound 0.316 µM, first compound 0.0316 µM
[26] = second compound 0.316 µM, first compound 0.1 µM
[27] = second compound 0.316 µM, first compound 0.316 µM
[28] = second compound 0.316 µM, first compound 1 µM
[29] = second compound 0.316 µM, first compound 3.16 µM
[30] = second compound 0.316 µM, first compound 10 µM
[31] = second compound 1 µM, first compound 0.0316 µM
[32] = second compound 1 µM, first compound 0.1 µM
[33] = second compound 1 µM, first compound 0.316 µM
[34] = second compound 1 µM, first compound 1 µM
[35] = second compound 1 µM, first compound 3.16 µM
[36] = second compound 1 µM, first compound 10 µM
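Further: spheroids exposed to compounds for seven days before read-out.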

C=CC(=O)N1CCN(c2nc(=O)n(-c3c(C)ccnc3C(C)C)c3nc(-c4c(O)cccc4F)c(F)cc23)C(C)C1 (centres undefined) + COc1c(OCCCN2CCOCC2)ccc2c3n(c(=NC(=O)c4cnc(N)nc4)nc12)CCN3
IC50 (second compound 0.00316 µM): > 10 µM
IC50 (second compound 0.01 µM): > 10 µM
IC50 (second compound 0.0316 µM): < 0.0316 µM
IC50 (second compound 0.1 µM): < 0.0316 µM
IC50 (second compound 0.316 µM): < 0.0316 µM
IC50 (second compound 1 µM): < 0.0316 µM
viability, T/C [1]: 88.7%
viability, T/C [2]: 91%
viability, T/C [3]: 108%
viability, T/C [4]: 106%
viability, T/C [5]: 101%
viability, T/C [6]: 93.1%
viability, T/C [7]: 72.8%
viability, T/C [8]: 79%
viability, T/C [9]: 79.3%
viability, T/C [10]: 84%
viability, T/C [11]: 89.9%
viability, T/C [12]: 91.9%
viability, T/C [13]: 41.4%
viability, T/C [14]: 43.6%
viability, T/C [15]: 44.4%
viability, T/C [16]: 46%
viability, T/C [17]: 51.2%
viability, T/C [18]: 45.1%
viability, T/C [19]: 18.6%
viability, T/C [20]: 18.4%
viability, T/C [21]: 18.4%
viability, T/C [22]: 20.2%
viability, T/C [23]: 20.4%
viability, T/C [24]: 15.2%
viability, T/C [25]: 7.53%
viability, T/C [26]: 7.13%
viability, T/C [27]: 6.33%
viability, T/C [28]: 6.9%
viability, T/C [29]: 6.5%
viability, T/C [30]: 3.82%
viability, T/C [31]: 1.94%
viability, T/C [32]: 1.84%
viability, T/C [33]: 1.67%
viability, T/C [34]: 1.83%
viability, T/C [35]: 1.85%
viability, T/C [36]: 1.04%

Cn1nccc1Nc1nccc(-c2ccn(C(CO)c3ccc(Cl)c(F)c3)c(=O)c2)n1 (centres undefined) + COc1c(OCCCN2CCOCC2)ccc2c3n(c(=NC(=O)c4cnc(N)nc4)nc12)CCN3
IC50 (second compound 0.00316 µM): > 10 µM
IC50 (second compound 0.01 µM): > 10 µM
IC50 (second compound 0.0316 µM): < 0.0316 µM
IC50 (second compound 0.1 µM): < 0.0316 µM
IC50 (second compound 0.316 µM): < 0.0316 µM
IC50 (second compound 1 µM): < 0.0316 µM
viability, T/C [1]: 79.8%
viability, T/C [2]: 78.6%
viability, T/C [3]: 85.1%
viability, T/C [4]: 68.8%
viability, T/C [5]: 69.8%
viability, T/C [6]: 67.5%
viability, T/C [7]: 63.5%
viability, T/C [8]: 64.7%
viability, T/C [9]: 67.3%
viability, T/C [10]: 61.7%
viability, T/C [11]: 59.4%
viability, T/C [12]: 49.1%
viability, T/C [13]: 39.4%
viability, T/C [14]: 38.2%
viability, T/C [15]: 36.2%
viability, T/C [16]: 30.5%
viability, T/C [17]: 32.3%
viability, T/C [18]: 31.4%
viability, T/C [19]: 16.1%
viability, T/C [20]: 15.6%
viability, T/C [21]: 12.8%
viability, T/C [22]: 10.8%
viability, T/C [23]: 8.15%
viability, T/C [24]: 5.83%
viability, T/C [25]: 4.89%
viability, T/C [26]: 4.56%
viability, T/C [27]: 3.55%
viability, T/C [28]: 2.04%
viability, T/C [29]: 1.28%
viability, T/C [30]: 1.21%
viability, T/C [31]: 1.1%
viability, T/C [32]: 1.11%
viability, T/C [33]: 0.44%
viability, T/C [34]: 0.35%
viability, T/C [35]: 0.28%
viability, T/C [36]: 0.34%
